From publication PMC9629815, “MK256 is a novel CDK8 inhibitor with potent antitumor activity in AML through downregulation of the STAT pathway” (Oncotarget, 2022) come the findings set out here.

In one data set the target is CYP1A2 (Homo sapiens, UniProt P05177). The experiment in a line: Cytochrome P450 inhibition assay. In kind it is in vitro ADME. The settings on record: 50 uM.
The subject of another data set is MOLM-14 xenograft model. The experiment in a line: MOLM-14 xenograft efficacy study, single agent. The format is in vivo, NOD SCID mice. The settings on record: 50 mg/kg twice a day. How it is done:
These favorable properties led us to evaluate the efficacy of MK256 in vivo using the MOLM-14 cell line to examine if the compound could inhibit tumor growth in the MOLM-14 xenograft model. Mice were given 100 ul of 50 mg/kg of MK256 or 100 ul of saline twice a day for 21 days following a 5-day on/ 2-day off schedule. Tumors from two groups of mice were all initially ~ 300 mm^3. Tumors of the mice in the control group continued to grow quickly during the 21-day period, with the average tumor volume reaching 1600 mm^3 on day 22, when we measured tumors for the last time. In the contrast, tumors of the mice in the treatment group shrank to 200 mm^3 on average by day 22 (Figure 9A). Average tumor weight was 0.16 g for the treatment group and 1.85 g for the control group (Figure 9B). […] Tumors collected on day 22 were then processed and analyzed with western blot.
Female NOD SCID mice were purchased from Charles River Laboratories (Wilmington, USA) or bred at the animal facilities of the University of California San Francisco. All animal experiments were carried out under protocols approved by the Institutional Animal Care and Use Committee of the University of California San Francisco. For MOLM-14 model, 200 ul of 1 × 10^6 cells combined with matrigel (v/v, 1:1) were injected subcutaneously in the right flank of NODSCID mice. Tumors were allowed to grow for two weeks to reach a tumor volume about 200 mm^3 before mice were randomly grouped. The animals were treated for three weeks on a 5 days on/2 days off schedule by oral gavage with MK256 (dissolved in saline) alone or in combination with Venetoclax (dissolved in 5% DMSO + 50% PEG 300 + 5% Tween 80 + ddH2O). In the single treatment study, MK256 was administered by mice twice a day at 50 mg/kg. In the combination study, MK256 (10 or 50 mg/kg) and was coadministered with Venetoclax (25 mg/kg) once a day. Tumor volume and body weight were monitored once every 3 days. Tumor volume was calculated as L × W^2/2, where L and W were the length and width of the tumor, respectively.

The next data set can be described thus: In vivo mouse PK study. Set-up: species or system mice. The settings on record: plasma. How it is done: Mice were dosed with either 1 mg/ml (IV) at a dose of 3 mg/kg or 3 mg/ml (PO) at a dose of 30 mg/kg in 40% PEG400 + 60% (30% Solutol) (final pH ~ 7). Blood samples were drawn at 5 mins, 15 mins, 30 mins, 1 hr, 2 hrs, 4 hrs, 8 hrs, and 24 hs from mice dosed with the IV route and at 1 hr, 4 hrs, 8 hrs and 24 hrs from mice dosed orally. An aliquot of 30 μL of plasma was extracted with 100 μL of 5:95 methanol:acetonitrile containing internal standard (Verapamil). The mixture was vortexed on a shaker for 15 minutes and subsequently centrifuged at 4000 rpm for 15 minutes. An aliquot of 70 μL of the supernatant was mixed with 70 μL water with 0.1% formic acid for the injection to the LC/MS/MS. Calibration standards were prepared by spiking MK256 into the blank mouse plasma. All samples are analyzed on LC/MS/MS using an AB Sciex API 4000 instrument, coupled to a Shimadzu LC-20AD LC Pump system.

For data set [1], the system named is p-STATs and MCL-1 in MV-4-11 cells. In words: Western blot of STAT pathway in MV-4-11 cells. In kind it is cell-based. The settings on record: 48 hrs. How it is done:
For the in vitro western blot study, MV-4-11 and MOLM-14 cells were plated (6-well) at 5 × 10^5 cells per well with medium containing 1% FBS overnight. MK-256 was added in different concentrations at different time points. […] Total protein concentration was measured using the Pierce BCA protein Assay Kit (23227, Thermo Fisher Scientific). Proteins were separated on SDS-PAGE and transferred to Nitrocellulose membrane.
In general terms: A western blot detects proteins with antibodies after separation by electrophoresis.

The test system of data set [2] is p-STAT1 (S727), p-STAT3(S727), p-STAT5(S726) in MOLM-14 xenograft tumors. The experiment in a line: Pharmacodynamics study in MOLM-14 xenograft model (western blot of tumors). In kind it is in vivo, mice. The settings on record: 10, 50 and 100 mg/kg oral, 6 hrs; with higher doses. As to the method:
For the in vivo western blot study, to assess gene expression in vivo, tumors were induced in female NOD SCID mice by s.c. inoculation of 5 × 10^6 AML cells suspended in matrigel. Mice bearing tumors of at least 100 mm^3 were treated with MK256. Mice were sacrificed after 6 hrs and tumors were harvested. The tumors were homogenized and lysed in T-per Mammalian Protein Extraction Reagent (78510, Thermo Fisher Scientific) containing protease and phosphatase inhibitors (88669, Thermo Fisher Scientific). Total protein concentration was measured using the Pierce BCA protein Assay Kit (23227, Thermo Fisher Scientific). Proteins were separated on SDS-PAGE and transferred to Nitrocellulose membrane. Immunoblotting was performed using specific antibodies. The following specific antibodies were used: Cell signaling technology: pSTAT1(S727) #8826, pSTAT1(Y701) #9167, STAT1 #14994, pSTAT3 (S727) #9134, pSTAT3(Y705) #9145, STAT3 #9139, pSTAT5(Y694) #4322, STAT5 #25656, b-ACTIN #3700, GAPDH #5174, BCL2 #4223, MCL-1 #94296, Cleaved PARP #9541, Cleaved Caspase3 #9661, IL6ST #12859, SmyD3 #3732, PD-L1 #13684. Invitrogen: IL6R PA5109855. Abcam: pSTAT5(S726) ab128896.

Where [3] appears, read: IV 3 mg/kg or PO 30 mg/kg study, footnote 2 not given.

CYP1A2, sequence (P05177 whole entry): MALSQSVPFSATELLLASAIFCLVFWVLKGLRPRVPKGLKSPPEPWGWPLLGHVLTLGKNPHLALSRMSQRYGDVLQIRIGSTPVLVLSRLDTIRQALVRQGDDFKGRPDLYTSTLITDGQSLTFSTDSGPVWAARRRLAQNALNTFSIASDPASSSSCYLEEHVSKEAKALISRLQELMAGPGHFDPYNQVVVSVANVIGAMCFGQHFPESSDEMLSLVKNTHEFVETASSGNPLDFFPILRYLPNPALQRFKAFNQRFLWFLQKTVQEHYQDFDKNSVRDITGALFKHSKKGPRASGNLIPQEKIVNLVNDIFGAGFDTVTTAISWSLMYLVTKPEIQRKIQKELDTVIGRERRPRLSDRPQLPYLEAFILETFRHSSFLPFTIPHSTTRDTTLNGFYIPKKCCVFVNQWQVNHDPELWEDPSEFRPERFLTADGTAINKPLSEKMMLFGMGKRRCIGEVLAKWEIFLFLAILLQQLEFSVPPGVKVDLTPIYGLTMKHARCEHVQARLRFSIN

For the molecule `Nc1nccc2c(Br)cc3cc(C(=O)O)ccc3c12` [MK256], the “cytochrome P450 inhibition” value at CYP1A2 is given as “no inhibition”. Besides, the “expression level of p-STAT1(S727) and p-STAT5(S726) in tumors collected on day 22” value in the data set on MOLM-14 xenograft model is on record as “down regulate”. Also, the “average tumor volume on day 22” value with MOLM-14 xenograft model (5-day on/2-day off, 21 days, start ~300 mm^3, control 1600 mm^3) is on record as 200 mm^3. For the same molecule, the average tumor weight with MOLM-14 xenograft model (day 22, control 1.85 g) came to 0.16 g. For the same molecule, the “average body weight at end of study” value with MOLM-14 xenograft model (from 23.5 g at start, control 23.4 g to 25.7 g) amounted to 23.9 g. Further, in the data set “In vivo mouse PK study” (setting [3]), the area under the curve AUC(0-t) (in general, the area under the concentration-time curve up to a stated or last time point) came out at 330 µM·h; the Cmax (in general, the highest concentration seen after dosing) stood at 29 µM; the half-life (commonly how long it takes for the measured level to halve) is 3.6 h. In the data set “In vivo mouse PK study” (PO 30 mg/kg vs IV 3 mg/kg), the bioavailability (in general, dose-corrected exposure relative to a reference, in per cent) is 59%. Moreover, the clearance (in general, the rate of elimination divided by the concentration) in “In vivo mouse PK study” (intravenous, 3 mg/kg) was 2.83 mL/min/kg. In “In vivo mouse PK study” (intravenous, 3 mg/kg, read-out: Vss), the Vd came to 0.49 L/kg. In data set [1] (30 nM to 1 uM), the “expression levels of p-STAT1 (S727), p-STAT3(S727), p-STAT5(S726)” value is given as “trend of reduction”. For the same molecule, the “expression of MCL-1” value in data set [1] (30 nM to 1 uM, dose-dependent) is given as “reduced expression”. For the same molecule, in data set [1] (1 uM), the “expression level of MCL-1, p-STAT3(S727) and p-STAT5(S726)” value is listed as “remained at minimal levels”; the “expression level of p-STAT1(S727)” value was “abrogated completely”. The “expression levels of p-STAT1(Y701) and p-STAT5(Y694)” value in data set [1] (high concentrations) is on record as “unaffected”. In addition, the “expression levels of p-STAT1 (S727), p-STAT3(S727), p-STAT5(S726) in tumors” value in data set [2] is “further downregulated”.
